Test results taken from paper PMC5613772 (Biochemistry and Biophysics Reports, 2016).

Key:
[1] = target: L. donovani Gcs full length (GcsF, LdGcs, Gcs) (Leishmania donovani, UniProt Q67BG3, R498A); test: biochemical
GcsC = GcsC (Leishmania donovani, UniProt Q67BG3); settings: value said to be in Table 2 but not printed there
[2] = target: L. donovani Gcs full length (GcsF, LdGcs, Gcs) (Leishmania donovani, UniProt Q67BG3, E99A); test: biochemical
[3] = target: T1, L. donovani Gcs full length (GcsF, LdGcs, Gcs) (Leishmania donovani, UniProt Q67BG3); test: tryptophan fluorescence quenching; type: binding
T1 sequence (Q67BG3 1-687): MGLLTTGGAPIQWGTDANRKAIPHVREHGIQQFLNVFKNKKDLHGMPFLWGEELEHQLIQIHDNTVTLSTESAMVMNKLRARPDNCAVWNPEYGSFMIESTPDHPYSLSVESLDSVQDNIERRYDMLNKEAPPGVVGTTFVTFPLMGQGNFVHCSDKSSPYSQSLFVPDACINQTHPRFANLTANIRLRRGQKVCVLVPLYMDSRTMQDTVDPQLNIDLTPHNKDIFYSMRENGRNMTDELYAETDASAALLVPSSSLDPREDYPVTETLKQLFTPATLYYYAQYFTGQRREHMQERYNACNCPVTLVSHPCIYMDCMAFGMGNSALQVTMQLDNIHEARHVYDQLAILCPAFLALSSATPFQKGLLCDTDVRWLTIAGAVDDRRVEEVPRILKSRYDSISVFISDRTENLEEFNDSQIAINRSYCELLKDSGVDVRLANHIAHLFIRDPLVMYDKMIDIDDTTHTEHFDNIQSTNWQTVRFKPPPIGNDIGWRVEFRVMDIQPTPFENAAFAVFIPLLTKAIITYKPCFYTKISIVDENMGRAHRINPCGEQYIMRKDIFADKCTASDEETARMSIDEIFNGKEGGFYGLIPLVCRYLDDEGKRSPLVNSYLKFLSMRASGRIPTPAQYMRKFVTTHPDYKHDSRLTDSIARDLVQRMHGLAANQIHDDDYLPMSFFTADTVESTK

[4] = target: L. donovani Gcs full length (GcsF, LdGcs, Gcs) (Leishmania donovani, UniProt Q67BG3, E55A); test: biochemical
[5] = target: L. donovani Gcs full length (GcsF, LdGcs, Gcs) (Leishmania donovani, UniProt Q67BG3, E92A); test: biochemical

| SMILES | Kd [1] | ITC or tryptophan fluorescence quenching (not told) (GcsC) | Kd [2] | Kd [3] | Kd [4] | Kd [5] |
| --- | --- | --- | --- | --- | --- | --- |
| Nc1ncnc2c1ncn2[C@@H]1O[C@H](COP(=O)(O)OP(=O)(O)OP(=O)(O)O)[C@@H](O)[C@H]1O [ATP] | 1550 ± 238 µM | GcsT and C-terminal constructs also show comparable binding with ATP | 5.8 ± 0.3 µM | 2.7 ± 0.3 µM | 2.5 ± 1 µM | 3235 ± 0.937 µM |
| N[C@@H](CS)C(=O)O [L-Cysteine] | – | – | – | 177 ± 2.6 µM | 95 ± 2.1 µM | 115 ± 0.35 µM |
| N[C@@H](CCC(=O)O)C(=O)O [L-Glutamate] | 890 ± 0.167 µM | – | 666 ± 0.3 µM | 93.7 ± 1.8 µM | 793 ± 0.182 µM | 107 ± 0.16 µM |
